Patent US8598357B2, “Benzodioxole piperidine compounds” (Hoffmann-La Roche Inc., priority 2011, dated 2013)
Read-outs that look alike come from different tables or passages of the source.

Legend:
[1] = molecular target: D2 receptor (Homo sapiens (Human), UniProt P14416); assay: Radioligand binding assay ([3H]-spiperone) on membranes of HEK293 EBNA cells expressing human D2 receptor; details: human receptor in HEK293 EBNA cells; 0.7 nM [3H]-spiperone
Description: (§1) HEK293 EBNA cells were transiently transfected with expression plasmids encoding for the human D2 or D3 or for the human 5-HT2A receptor, respectively. The cells were harvested 48 h post-transfection, washed three times with cold PBS and stored at −80° C. prior to use. The pellet was suspended in cold 50 mM Tris-HCl buffer containing 10 mM EDTA (pH 7.4) and was homogenized with a Polytron (Kinematica AG, Basel, Switzerland) for 20-30 sec at 12.000 rpm. After centrifugation at 48.000×g for 30 min at 4° C., the pellet was resuspended in cold 10 mM Tris-HCl buffer containing 0.1 mM EDTA (pH 7.4), homogenized, and centrifuged as above. This pellet was further resuspended in a smaller volume of ice cold 10 mM Tris-HCl buffer containing 0.1 mM EDTA (pH 7.4) and homogenized with a Polytron for 20-30 sec at 12.000 rpm. The protein content of this homogenate was determined with the Bio-Rad (Bradford) Protein Assay (Biorad Laboratories GmbH, München, Germany) according to the instructions of the manufacturer using gamma globulin as the standard. This homogenate was stored at −80° C. in aliquots and thawed immediately prior to use.
(§2) Aliquots of membrane preparations were thawed at RT, resuspended in assay buffer (D2, D3: 50 mM Tris-HCl, 120 mM NaCl, 5 mM MgCl2, 1 mM EDTA, 5 mM KCl, 1.5 mM CaCl2, pH=7.4; 5-HT2A: 50 mM Tris-HCl, 10 mM MgCl2, 1 mM EGTA, pH=7.4), homogenized with a Polytron for 20-30 sec at 12.000 rpm and adjusted to a final concentration of approximately 7.5 μg protein/well (D2, D3) and 15 μg protein/well (5-HT2A), respectively.
(§3) The nonspecific binding was determined with equally composed reaction mixtures in the presence of 10 μM unlabelled spiperone. Per well 45 μl of Microscint 40 (Perkin Elmer, Schwerzenbach, Switzerland) was added, plates for sealed, shaken for 20 min and counted for 3 min on a Topcount Microplate Scintillation Counter (Can berra Packard SA, Ziirich, Switzerland) with quenching correction.
(§4) The CPM value for each duplicate of a concentration of competing compound was averaged (y1), then the % specific binding was calculated according to the equation (((y1−non-specific)/(total binding−non-specific))×100). Graphs were plotted with the % specific binding using XLfit, a curve fitting program that iteratively plots the data using Levenberg-Marquardt algorithm. The single site competition analysis equation used was y=A+((B−A)/(1+((x/C)D))), where y is the % specific binding, A is the minimum y, B is the maximum y, C is the IC50, x is the log 10 of the concentration of the competing compound and D is the slope of the curve (the Hill Coefficient). […] The affinity constant (K) was calculated using the Cheng-Prusoff equation Ki=(IC50/1+([L]/Kd), where [L] is the concentration of radioligand and Kd is the dissociation constant of the radioligand at the receptor as determined by the saturation isotherm.

[2] = molecular target: D3 receptor (Homo sapiens (Human), UniProt P35462); assay: Radioligand binding assay ([3H]-spiperone) on membranes of HEK293 EBNA cells expressing human D3 receptor; details: read-out: D3 Ki; human receptor in HEK293 EBNA cells; 0.5 nM [3H]-spiperone
D3 receptor, sequence (P35462 whole entry): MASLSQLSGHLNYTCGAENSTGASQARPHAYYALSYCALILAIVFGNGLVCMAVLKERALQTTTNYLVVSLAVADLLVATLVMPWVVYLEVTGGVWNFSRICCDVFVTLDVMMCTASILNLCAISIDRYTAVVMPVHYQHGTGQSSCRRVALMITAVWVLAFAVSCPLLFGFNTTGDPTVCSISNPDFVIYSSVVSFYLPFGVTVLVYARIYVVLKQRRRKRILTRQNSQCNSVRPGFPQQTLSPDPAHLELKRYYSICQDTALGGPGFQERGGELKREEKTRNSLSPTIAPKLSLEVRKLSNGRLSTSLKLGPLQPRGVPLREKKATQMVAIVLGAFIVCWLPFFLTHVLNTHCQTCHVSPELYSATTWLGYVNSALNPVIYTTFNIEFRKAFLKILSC
Description: as §1, §2, §3, §4

[3] = molecular target: 5-HT2A receptor (Homo sapiens (Human), UniProt P28223); assay: Radioligand binding assay ([3H]-ketanserin) on membranes of HEK293 EBNA cells expressing human 5-HT2A receptor; details: read-out: 5HT2A Ki
Description: as §1, §2, §3, §4

D2 receptor, sequence (P14416 whole entry): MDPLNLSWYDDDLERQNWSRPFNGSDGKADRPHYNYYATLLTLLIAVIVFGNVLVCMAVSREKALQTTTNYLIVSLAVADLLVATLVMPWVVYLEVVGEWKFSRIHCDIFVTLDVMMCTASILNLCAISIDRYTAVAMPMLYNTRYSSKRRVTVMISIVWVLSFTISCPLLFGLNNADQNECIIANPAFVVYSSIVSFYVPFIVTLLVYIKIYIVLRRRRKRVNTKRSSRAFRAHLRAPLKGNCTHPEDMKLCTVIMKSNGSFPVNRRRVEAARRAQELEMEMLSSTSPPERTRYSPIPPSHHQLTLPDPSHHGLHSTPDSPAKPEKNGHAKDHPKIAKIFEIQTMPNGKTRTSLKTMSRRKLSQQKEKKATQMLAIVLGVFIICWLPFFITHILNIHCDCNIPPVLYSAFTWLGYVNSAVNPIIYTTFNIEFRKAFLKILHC

| SMILES | Ki [1] [nM] | Ki [2] [nM] | Ki [3] [nM] | Ki ([3]; human receptor in HEK293 EBNA cells, 1.1 nM [3H]-ketanserin) [nM] |
| --- | --- | --- | --- | --- |
| O=C(N[C@H]1CC[C@H](CCN2CCC(c3cccc4c3OCO4)CC2)CC1)[C@H](O)C(F)(F)F [Example 38, Trans-(S)—N-{4-[2-(4-Benzo[1,3]dioxol-4-yl-piperidin-1-yl)-ethyl]-cyclohexyl}-3,3,3-trifluoro-2-hydroxy-propionamide] | 209 | 7.63 | 20.8 |  |
| CN1CCN(CC(=O)N[C@H]2CC[C@H](CCN3CCC(c4cccc5c4OCO5)CC3)CC2)CC1 [Example 68, Trans-N-{4-[2-(4-Benzo[1,3]dioxol-4-yl-piperidin-1-yl)-ethyl]-cyclohexyl}-2-(4-methylpiperazin-1-yl)-acetamide] | 104 | 19.8 |  | 31 |
